Assay results taken from EPA's ToxValDB 9.5.
Where “and” joins values, the source holds several entries; their conditions need not be identical. Identical values can stand only once. One block for each compound: values may come before it.

Experiments:
Mus musculus = conditions: uterotrophic, Active
Rattus norvegicus [1] = conditions: for LEL: uterotrophic, Active
Rattus norvegicus [2] = test system: Rattus norvegicus
Rattus norvegicus [3] = conditions: M/F
Oryctolagus sp. = conditions: acute; oral
Rattus norvegicus [4] = conditions: for NOAEL: Sprague-Dawley
Rattus norvegicus [5] = conditions: short-term; duration: 3 days; injection; subcutaneous; F; Crj:CD; uterus: uterine dry weight (absolute)
Rattus norvegicus [6] = conditions: subchronic; oral; gavage; M/F; Crj:CD; Deaths + Clinical Observation: Loose stool Locomotor activity decrease, Hypopnea Subnormal temperature decrease + Body Weight Changes: …
Rattus norvegicus [7] = conditions: subchronic; duration: 13 weeks; oral; diet; M; Sprague-Dawley; renal
[8] = duration: 7 days, injection, subcutaneous
[9] = duration: 1 days, injection, subcutaneous
[10] = duration: 3 days, injection, intraperitoneal
[11] = subchronic, duration: 90 days, oral, hematologic, hepatic and renal toxicity
[12] = duration: 1 days, injection, intraperitoneal

- LEL (Mus musculus; [8]): 1000 mg/kg-day
- LEL (Mus musculus; duration: 7 days, oral): 1000 mg/kg-day
Structure (SMILES): O=C(O)Cc1cc(I)c(Oc2ccc(O)c(I)c2)c(I)c1 [Tiratricol]

Structure (SMILES): COP(=S)(OC)Oc1nc(Cl)c(Cl)cc1Cl [Chlorpyrifos-methyl]
- LOEL (Rattus norvegicus [1]; Hershberger, duration: 10 days, oral, gavage, Sprague-Dawley, active + Negative + Antiandrogenic + anti-androgenic): 50 mg/kg-day
- NOAEL (Rattus norvegicus [2]; reproduction developmental, duration: 3 years, oral, diet, Liver: Effects + Reproduction: Decreased fertility): 1 mg/kg-day

Structure (SMILES): CC(C)(c1ccc(O)cc1)c1ccc(O)cc1 [Bisphenol A]
- LEL (Mus musculus; duration: 0.17 days, injection, subcutaneous): 0.00228 mg
- LEL (Mus musculus; [9]): 10 mg/kg-day
- LEL (Mus musculus; [10]): 20 mg/kg-day
- LEL (Mus musculus; duration: 3 days, osmotic minipump): 100 mg/kg-day
- LEL (Mus musculus; [8]): 100 mg/kg-day
- LEL (Rattus norvegicus [1]; [9]): 400 mg/kg-day
- LEL (Rattus norvegicus [1]; duration: 2 days, injection, subcutaneous): 200 mg/kg-day
- LEL (Rattus norvegicus [1]; duration: 4 days, injection, intraperitoneal): 0.5 mg/kg-day
- LEL (Rattus norvegicus [1]; [8]): 11 mg/kg-day
- LEL (Rattus norvegicus [1]; duration: 7 days, lactation): 150 mg/kg-day
- LOAEL (Rattus norvegicus [3]; chronic, oral, reduced mean body weight): 50 mg/kg-day
- NOAEL (Rattus norvegicus [2]; subchronic, duration: 13 weeks, oral, Whole body: Decreased weight): 750 ppm
- LD50 (Oryctolagus sp.): 2230 mg/kg
- LC50 (Rattus norvegicus [4]; acute, inhalation, particle, Fischer 344): > 170 µg/mL
- LD50 (Rattus norvegicus [4]; acute, oral, Fischer 344): 4100 mg/kg and 3300 mg/kg
- NOAEL (Rattus norvegicus [4]; developmental, duration: 10 days, oral, gavage): > 640 mg/kg-day
- NOAEL (Rattus norvegicus [4]; reproduction developmental, duration: 13 weeks, oral, diet, generation: F0): 75 ppm
- NOAEL (Rattus norvegicus [4]; reproduction developmental, duration: 13 weeks, oral, diet, generation: F1): 750 ppm
- LOAEL (Rattus norvegicus [4]; reproduction developmental, duration: 103 weeks, oral, diet, Fischer 344, generation: F0): 1000 ppm
- LOEL (Rattus norvegicus [5]): 20 mg/kg-day
- NOEL (Rattus norvegicus [5]): 2 mg/kg-day
- NOEL (Rattus norvegicus [6]): 40 mg/kg-day

Structure (SMILES): CC(=O)[O][Hg][c]1ccccc1 [Phenylmercuric acetate]
- LOAEL (Rattus norvegicus [3]; chronic, oral, renal damage): 0.042 mg/kg-day
- NOAEL (Rattus norvegicus [3]; chronic, oral, renal damage): 0.0084 mg/kg-day
- NOAEL (Rattus norvegicus [2]; chronic, duration: 2 years, oral, diet, Kidney: Damage): 0.0084 mg/kg-day

Structure (SMILES): COP(=S)(OC)Oc1cc(Cl)c(Br)cc1Cl [Bromofos]
- NOAEL (Rattus norvegicus [2]; reproduction developmental, oral, diet, Blood: Decreased cholinesterase activity + Liver: Decreased cholinesterase activity): 5 mg/kg-day

Structure (SMILES): S=C([S-])NCCNC(=S)[S-].S=C([S-])NCCNC(=S)[S-].[Mn+2].[Zn+2] [Mancozeb]
- NOEL (Rattus norvegicus [2]; chronic, duration: 90 weeks, oral, diet, Thyroid: Goitrogenic effects): 2.9 mg/kg-day

Structure (SMILES): O=C(O)COc1ccc(Cl)cc1Cl [2,4-Dichlorophenoxyacetic acid]
- LOAEL (Rattus norvegicus [3]; [11]): 5 mg/kg-day
- NOAEL (Rattus norvegicus [3]; [11]): 1 mg/kg-day
- NOAEL (Rattus norvegicus [2]; chronic, duration: 91 days, oral, diet, Blood: Toxicity + Kidney: Toxicity + Liver: Toxicity): 1 mg/kg-day
- NOAEL (Rattus norvegicus [7]): 16.6 mg/kg-day

- LEL (Mus musculus; [12]): 0.0005 mg/kg-day
- LEL (Mus musculus; [9]): 0.00045 mg/animal
- LEL (Mus musculus; duration: 1.2 days, injection, subcutaneous): 0.00045 mg/animal
- LEL (Mus musculus; [10]): 0.1 mg/kg-day
- LEL (Mus musculus; duration: 3 days, oral): 0.02 mg/kg-day
- LEL (Mus musculus; duration: 4 days, oral): 0.0006 mg/day
- LEL (Mus musculus; duration: 5 days, oral, diet): 0.004 ppm
- LEL (Mus musculus; duration: 6 days, oral, diet): 3.6e-05 mg and 5e-05 mg/day
- LEL (Mus musculus; duration: 9 days, injection, subcutaneous): 0.5 mg/kg-day
- LEL (Mus musculus; duration: 9 days, oral, diet): 0.004 ppm
- LEL (Mus musculus; duration: 10 days, injection, subcutaneous): 0.0001 mg/day
- LEL (Mus musculus; duration: 11 days, oral, diet): 0.004 ppm
- LEL (Mus musculus; duration: 42 days, injection, subcutaneous): 0.01 mg/kg-day
- LEL (Mus musculus; oral): 0.002 mg/kg-day
- LEL (Rattus norvegicus [1]; duration: 0 days, injection, intraperitoneal): 0.05 mg
- LEL (Rattus norvegicus [1]; duration: 1 days, dermal): 0.5 mg/L
- LEL (Rattus norvegicus [1]; [12]): 0.01 mg/kg-day
- LEL (Rattus norvegicus [1]; [10]): 0.01 mg/kg-day
- LEL (Rattus norvegicus [1]; duration: 4 days, injection, subcutaneous): 0.01 mg/day
- LEL (Rattus norvegicus [1]; duration: 4 days, oral, diet): 0.005 ppm and 0.01 ppm
- LEL (Rattus norvegicus [1]; duration: 7 days, oral): 0.0009 mg/kg-day
- LEL (Rattus norvegicus [1]; duration: 8 days, injection, intraperitoneal): 0.01 mg/kg-day
Structure (SMILES): CC/C(=C(/CC)c1ccc(O)cc1)c1ccc(O)cc1 [Diethylstilbestrol]

Structure (SMILES): CCOP(=O)(/N=C1\SCC(C)S1)OCC (centres undefined) [Mephosfolan]
- NOEL (Rattus norvegicus [2]; chronic, duration: 17 weeks, oral, diet, Blood: Decreased cholinesterase activity + Brain: Decreased cholinesterase activity + Erythrocytes: Decreased cholinesterase activity + …): 0.09 mg/kg-day

- LEL (Mus musculus; duration: 4 days, oral, diet): 2.5 mg/day
Structure (SMILES): COc1ccc(-c2coc3cc(O)cc(O)c3c2=O)cc1 [Biochanin A]

Structure (SMILES): C=CC(=C)Cl [Chloroprene]
- NOAEL (Rattus norvegicus [2]; chronic, duration: 2 years, inhalation, intermittent, Hair: Alopecia + Whole body: Decreased weight gain): 36.2 mg/m3
- NOAEL (Rattus norvegicus [2]; subchronic, duration: 90 days, inhalation, Olfactory epithelium: Degeneration): 116 mg/m3

- LEL (Mus musculus; duration: 3 days, oral): 33.3 mg/kg-day
Structure (SMILES): O=C(Oc1ccccc1)c1ccccc1O [Phenyl salicylate]

Structure (SMILES): CC1CO1 (racemic) [(+/-)-1,2-Propylene oxide]
- LOAEL (Rattus norvegicus [3]; chronic, duration: 2 years, inhalation, nest-like infolds of the nasal respiratory epithelium): 71 mg/m3
- LOAEL (Rattus norvegicus [2]; chronic, duration: 2 years, inhalation, intermittent, Epithelium: Unspecified): 71 mg/m3
